Experimental data: US7202046B2, “Use of a fluorescent protein for detecting interaction between a target protein and its ligand” (priority 1997, dated 2007)
Several values for one entry are separate records, joined by “and”; a condition that tells them apart may be missing. Equal values may be shown once. Read-outs that look alike come from different tables or passages of the source.

Key:
[1] = test system: NK2R-RF1 receptor; experiment: Fluorescence energy transfer between fluorescent ligand and NK2R-RF1 on HEK293 cells in suspension; format: binding, rat; conditions: for inhibition of real-time energy transfer between 100 nM NKA BO I and NK2R-RF1: 20 μM non-fluorescent ligand; for inhibition of real-time energy transfer between 100 nM NKA BO I and NK2R-RF1 / Kd: 10^6 cells/ml; for inhibition of real-time energy transfer between 100 nM NKA BO I and NK2R-RF1 / Kd / detection of receptor-fluorescent ligand interaction signal (energy transfer): emission 510 nm; for reversal of the energy transfer signal by excess non-labeled ligand, at equilibrium: 1–10 μM non-labeled ligand after 100 nM NKA BO I; for Kd: 0 to 256 nM ligand, read-out: affinity value KD from amplitude of the fluorescence signal; for detection of receptor-fluorescent ligand interaction signal (energy transfer): 100 nM fluorescent ligand, real time
Procedure: The fluorescence experiments are carried out in a 1 ml tank fitted with a magnetic stirring system and placed in a Fluorolog spectrofluorimeter (SPEX) equipped with a 450 W xenon lamp (Osram) and Spex 1680 0.22 m (excitation) and Spex 1681 0.22 m (emission) monochromators. The cells or the membrane fragments are suspended in physiological buffer: 10 mM Hepes, 137.5 mM NaCl, 1.25 mM MgCl2, 1.25 mM CaCl2, 6 mM KCl, 5.6 mM glucose, 0.4 mM NaH2PO4, 0.1% (w/v) BSA, pH 7.4.
The HEK293 cells expressing the NK2R-RF1 are suspended at a concentration of 1,000,000 cells/ml in Hepes physiological buffer (10 mM Hepes, 137.5 mM NaCl, 1.25 mM MgCl2, 1.25 mM CaCl2, 6 mM KCl, 5.6 mM glucose, 0.4 mM NaH2PO4, 0.1% (w/v) BSA, pH 7,4). The cells are then placed in a fluorescence tank at a concentration which can range from 100,000 to 1,000,000 cells/ml. […] The emission spectrum of the solution is again recorded. […] The appearance of a peak at 550–560 nm during the addition of the fluorescent ligand and a reduction in its intensity during the addition of non-labeled ligand are also detected. […] The signal is reversible by means of addition of a pharmacological agent capable of inhibiting the interaction between the ligand and its receptor.
The same recordings can be made in real time. For this, the excitation wavelength is set at 460 nm and the emission wavelength is set at 510 nm. […] The final value of the fluorescence intensity can be higher than the initial value when the absorption of the fluorescent ligand contributes to the signal.

[2] = test system: fluorescent receptor NK2R-RF1; experiment: Displacement of 3H SR 48968 binding (competition experiment), HEK 293 cells expressing NK2R-RF1; parameters: species or system rat; conditions: read-out: KI, displacement of 3H SR 48968, 1 nM 3H SR 48968, 25,000 cells, 4° C.
Procedure: Each 500 μl sample contains 25,000 cells, 1 nM 3HSR 48968 and a non-radioactive ligand at various concentrations (from 1 nM to 10 μM). The incubation is carried out for one hour at 4° C. Filtration is carried out at the end of incubation, as described in 3b).

[3] = target: T1, wild-type NK2R receptor (Rattus norvegicus, UniProt P16610); experiment: Release of intracellular calcium (FURA 2), cells expressing pCEP4-NK2R WT; format: cell-based; conditions: for inhibition of the NKA-elicited calcium response: antagonist (5 μM cyclopeptide) then 10 nM NKA
T1 construct: expressed in transfected cells; host or cells: HEK 293 cells, construct pCEP4-NK2R
T1 sequence (P16610 1-390): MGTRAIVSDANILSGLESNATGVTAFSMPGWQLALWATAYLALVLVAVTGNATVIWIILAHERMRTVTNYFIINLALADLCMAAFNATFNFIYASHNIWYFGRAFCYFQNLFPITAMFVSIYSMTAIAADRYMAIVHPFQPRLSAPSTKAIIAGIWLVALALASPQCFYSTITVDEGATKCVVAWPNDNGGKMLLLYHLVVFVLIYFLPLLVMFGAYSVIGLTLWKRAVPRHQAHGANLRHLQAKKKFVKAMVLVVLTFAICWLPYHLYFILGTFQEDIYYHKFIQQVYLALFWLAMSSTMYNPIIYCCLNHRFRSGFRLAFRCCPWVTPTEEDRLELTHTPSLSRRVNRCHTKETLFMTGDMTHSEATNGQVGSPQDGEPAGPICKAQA
Procedure: (§1) The fluorescent calcium-chelating agent, FURA 2 acetyl methyl ester (Molecular Probes), dissolved in DMSO is diluted to a concentration of 3 μM in 10 mM Hepes, 137.5 mM NaCl, 1.25 mM MgCl2, 1.25 mM CaCl2, 6 mM KCl, 5.6 mM glucose, 0.4 mM NaH2PO4, 0.1% (w/v) BSA, pH 7.4 buffer. The cell culture medium is aspirated and then replaced with 7 to 10 ml of FURA 2 AM solution. The cells are placed in the CO2 incubator for 45 min. The medium is then aspirated, replaced with FURA-free Hepes buffer and the cells are replaced in the CO2 incubator for a further 15 min. The buffer is aspirated and the cells are then collected after they have been detached from the dish with a 5 mM EDTA, PBS solution for 5 min. After centrifugation at 1000×g for 5 min., the cell pellet obtained is re-suspended at a rate of 1×10^6 cells/ml in Hepes buffer.
(§2) The calcium-release measurements are carried out at 37° C., in a spectrofluorimetiy tank containing a magnetic stirrer bar. The excitation wavelength is set at […] and the emission wavelength is set at 510 nm.

[4] = test system: NK2R-RF1; experiment: Release of intracellular calcium (FURA 2), cells expressing pCEP4-NK2R-RF1; format: cell-based, rat; conditions: for inhibition of the NKA-elicited calcium response: antagonist (5 μM cyclopeptide) then 10 nM NKA
Procedure: as §1, §2

[5] = test system: non-transfected HEK 293 cells; experiment: Release of intracellular calcium (FURA 2), non-transfected cells; format: cell-based
Procedure: as §1, §2

[6] = target: T1, wild-type NK2R receptor; experiment: Saturation binding of 3H SR 48968 to whole cells expressing wild-type NK2R; conditions: two experiments
Procedure: (§3) After incubation for 30 min. at room temperature, the samples are filtered through GF/C filters (Whatmann) pre-treated in 1% powdered milk in PBS (2.7 mM KCl, 1.47 mM KH2PO4, […], 8.06 mM Na2HPO4), rinsed twice with PBS (4 ml) and then counted in a scintillation cocktail.
(§4) Each 500 μl sample contains 25,000 cells, and the fraction of bound ligand is less than 10% of the amount added to each tube. Filtration is carried out at the end of incubation, as described above.

[7] = target: T2, fluorescent receptor NK2R-RF1 (Rattus norvegicus, UniProt P16610); experiment: Saturation binding of 3H SR 48968 to whole cells expressing NK2R-RF1 (EGFP fused at N-terminal); conditions: two experiments
T2 construct: fused on or other part: EGFP (from pEGFP C3-1) fused at the receptor's N-terminus, preceded by the signal peptide of the hen alpha7 nicotinic receptor subunit; Both are tag or targeting parts and are not part of the key
Procedure: as §3, §4

[8] = saturation curve, 25,000 cells, 4° C., 1 h 30 min, read-out: affinity value (KD)

**Q.** For neurokinin A [NKA], which “inhibition of real-time energy transfer between 100 nM NKA BO I and NK2R-RF1” value [1] is on record?
**A.** inhibition

**Q.** What about the “reversal of the energy transfer signal by excess non-labeled ligand, at equilibrium” value [1] of the same compound?
**A.** return to the initial fluorescence

**Q.** And the “effect of non-fluorescent ligand alone on the fluorescence emission spectrum” value ([1]; cells expressing NK2R-RF1, no fluorescent ligand)?
**A.** has no effect on the fluorescence emission spectrum

**Q.** What about the Ki [2] of the same compound?
**A.** 2.1 nM

**Q.** What about the “calcium release response elicited” value ([3]; 10 nM NKA, 37° C.) of the same compound?
**A.** elicited

**Q.** What about the “calcium release response elicited” value ([4]; 10 nM NKA, 37° C.) of the same compound?
**A.** elicited

**Q.** And the calcium release response [5]?
**A.** does not elicit any response

**Q.** What does the source list for “cyclo(-Gln-Trp-Phe-Gly-Leu-Met) (QWFGLM; cyclic; printed: Gln-Trp-Phe-Gly-Leu-Met) [NK2R antagonist cyclopeptide (Bachem)]”?
**A.** inhibition of real-time energy transfer between 100 nM NKA BO I and NK2R-RF1 [1]: inhibition; reversal of the energy transfer signal by excess non-labeled ligand, at equilibrium [1]: return to the initial fluorescence; inhibition of the NKA-elicited calcium response [3]: inhibited; inhibition of the NKA-elicited calcium response [4]: inhibited

**Q.** Which results are given for CC(=O)NC1(c2ccccc2)CCN(CC[C@H](CN(C)C(=O)c2ccccc2)c2ccc(Cl)c(Cl)c2)CC1 [SR 48968]?
**A.** reversal of the energy transfer signal by excess non-labeled ligand, at equilibrium [1]: return to the initial fluorescence; inhibition of the NKA-elicited calcium response [3]: inhibited; inhibition of the NKA-elicited calcium response [4]: inhibited

**Q.** CSCC[C@H](NC(=O)[C@H](CC(C)C)NC(=O)CNC(=O)[C@@H](NC(=O)[C@H](Cc1ccccc1)NC(=O)[C@H](CO)NC(=O)[C@H](CC(=O)O)NC(=O)[C@@H](NC(=O)[C@H](CCCCN)NC(=O)[C@H](Cc1c[nH]cn1)NCC(=O)NCCNC(=O)CCc1ccc2n1[B-](F)(F)[N+]1=C(c3ccccc3)C=C(c3ccccc3)C1=C2)[C@@H](C)O)C(C)C)C(N)=O [NKA BO I] was tested. Which Kd ([1]; listed as NKA-BO I) did it give?
**A.** 24 nM

**Q.** What about the Kd [1] of the same compound?
**A.** 20 to 30 nM

**Q.** What about the “change of EGFP fluorescence (510 nm) on addition of fluorescent ligand, at equilibrium” value ([1]; 100 nM ligand, excitation 460 nm) of the same compound?
**A.** extinction of the fluorescence of EGFP

**Q.** What about the Ki [2] of the same compound?
**A.** 16 nM

**Q.** And the Ki ([2]; listed as NKA-BO I)?
**A.** 16.1 nM

**Q.** Which “detection of receptor-fluorescent ligand interaction signal (energy transfer)” value [1] does the source give for “NKA Eos: eosin derivative of NKA (eosin-5-iodoacetamide)” here?
**A.** detection of an NK2R-RF1 receptor-fluorescent ligand interaction signal

**Q.** How did the “detection of receptor-fluorescent ligand interaction signal (energy transfer)” value [1] turn out when “NKA TR: neurokinin A labeled with sulforhodamine 101 acid chloride (Texas Red)” was run?
**A.** detection of an NK2R-RF1 receptor-fluorescent ligand interaction signal

**Q.** With CC(=O)NC1(c2ccccc2)CCN(CC[C@H](CN(C)C(=O)c2ccccc2)c2ccc(Cl)c(Cl)c2)CC1 [^3H SR 48968] as the compound, how does the Kd [6, 8] read?
**A.** 1.05 nM and 0.78 nM

**Q.** What about the “maximum binding value (B max)” value ([6]; saturation curve) of the same compound?
**A.** 0.1 pMol/25,000 cells

**Q.** And the Kd [7, 8]?
**A.** 0.8 nM and 0.92 nM

**Q.** What about the “maximum binding (B max) value” ([7]; saturation curve) of the same compound?
**A.** 0.075 pMol/25,000 cells and 0.088 pMol/25,000 cells
